# Values of other authors in patent US5223503A, “6-substituted pyrido[2,3-d]pyrimidines as antineoplastic agents” (Eli Lilly and Company, priority 1992, dated 1993).
# Test system: solid tumors
# Conditions: Proc. Amer. Assoc. Cancer Res., 31, 1053 (1990)
compound,measurement,value
"Nc1nc2c(c(=O)[nH]1)CC(CCc1ccc(C(=O)N[C@@H](CCC(=O)O)C(=O)O)cc1)CN2 (stereo partly shown) [lometrexol, 5,10-dideazatetrahydrofolic acid]",clinical efficacy against solid tumors,clinical efficacy against solid tumors
